Results on three molecules are retold here after patent US9370474B2, “High-clarity aqueous concentrates of 4-hexylresorcinol” (JOHNSON & JOHNSON CONSUMER INC., priority 2009, dated 2016).

Series [1] is described as follows: Clarity of mixtures of resorcinol/phenol analogues with water. Conditions: separately mixed with water at 50% and 75% concentrations. The class given is physicochemical. The source says:
4-Octylresorcinol and 3-methoxyphenol (from Sigma-Aldrich of St. Louis, Mo.) were separately mixed with water at 50% and 75% concentrations.

The conditions of series [2]: cited from earlier work.

For `CCCCCCCCc1ccc(O)cc1O` [4-Octylresorcinol], the “Clarity / appearance of mixtures with water” value in series [1] was “None of the mixtures were clear”. On the same count and under the same terms, as for `COc1cccc(O)c1` [3-methoxyphenol], the entry is “None of the mixtures were clear”. For `CCCCCCc1ccc(O)cc1O` [Example 4-HR, 4-Hexylresorcinol], in series [2], the “Water solubility (prior art characterization)” value is “water-insoluble”.
